This note sets out measurements from patent US20240173329A1, “BELVARAFENIB FOR USE IN TREATMENT OF BRAIN CANCERS” (Genentech, Inc., priority 2021, published 2024).

One series addresses RAF-1 (CRAF) (Homo sapiens, UniProt P04049). The experiment in a line: RAF kinase inhibition in vitro. It is filed as biochemical.
Another series deals with EPHA7 (Homo sapiens, UniProt Q15375). The experiment in a line: panel of 189 kinase assays. It counts as biochemical.
A further series deals with P-gp/BCRP. The experiment in a line: P-gp/BCRP efflux substrate status. It counts as in vitro ADME. The conditions noted are these: belvarafenib, own experiments.
Series [1] deals with solid tumors harboring mutations in BRAF, KRAS, or NRAS genes. The experiment in a line: open-label Phase Ia dose-escalation study. It counts as in vivo, human. Particulars: for Median DOR: updated. The method, then: For instance, a completed, open-label, Phase Ia, dose-escalation investigated several doses and schedules of belvarafenib in patients with solid tumors harboring mutations in BRAF, KRAS, or NRAS genes. Efficacy was analyzed for 67 of 72 subjects who had at least 1 post-baseline tumor assessment. […] Fifty-nine (88.06%) subjects developed an event (progression of disease or death), all of which were reported as progressive disease (PD). In addition, median progression-free survival was 11.53 weeks and the 95% confidence interval for the median was [7.12 weeks, 13.38 weeks). […] Median DOR was elevated to 30.18 weeks in 800 mg BID group and 23.99 weeks in total group including DOR of a subject which is 100.29 weeks.

Series [2] in a line: Brain to plasma ratio of belvarafenib, summary over mice and rats. It counts as in vivo. Particulars: for Kp: mouse, rat, brain/plasma. The method, then: Pharmacokinetic parameters of belvarafenib were calculated from plasma and brain concentration-time data by a non-compartmental method using Phoenix™ WinNonlin 8.1 (Certara, USA). The peak plasma and brain concentration (Cmax) and the corresponding time (Tmax) were directly obtained from the raw data. The area under the plasma curve (AUClast) was obtained by linear-log trapezoidal summation. Other PK parameters such as AUC from dosing time extrapolated to infinity (AUCinf), half-life (t1/2) and mean residence time (MTRlast) were calculated using WinNonlin. The plasma and brain concentrations of belvarafenib were presented as MEAN±S.D. The brain to plasma (B/P) ratio of Belvarafenib was calculated by dividing AUClast in the brain by AUClast in the plasma.
The brain to plasma ratio is expressed in terms of B/P (nonclinical) defined as the percentage of brain exposure relative to plasma. The B/P for belvarafenib was determined experimentally according to the present disclosure and wherein the B/P of 93% is for mice and the B/P of 138% is for rats. The B/P for DAY101 is for mice was taken from Gampa, et al., “Brain Distribution and Active Efflux of Three pan-RAF Inhibitors: Considerations in the Treatment of Melanoma Brain Metastases”, J Pharmacol Exp Ther 368:446-461, March 2019. The B/P for dabrafenib is for mice and was taken from Mittapalli, et al., “Mechanisms Limiting Distribution of the Threonine-Protein Kinase B-RaFV600E Inhibitor Dabrafenib to the Brain: Implications for the Treatment of Melanoma Brain Metastases”, J Pharmacol Exp Ther 344:[…], 2013. The B/P for vemurafenib is for mice and was taken from Mittapalli, et al., “Impact of P-glycoprotein (ABCB1) and breast cancer resistance protein (ABCG2) on the brain distribution of a novel BRAF inhibitor: vemurafenib (PLX4032)”, J Pharmacol Exp Ther 342:33-40, 2013. […]

Series [3] relates to solid tumors harboring mutations in BRAF, KRAS, or NRAS genes. The experiment in a line: open-label Phase Ib dose-expansion study. It counts as in vivo, human. Here is the method: In another open-label, Phase Ib, dose-expansion study, belvarafenib was evaluated at a dose of 450 mg BID in patients with solid tumors harboring mutations in BRAF, KRAS, or NRAS genes. Efficacy was analyzed for 59 of 63 subjects who had at least 1 dose of belvarafenib after enrollment and had at least 1 post-baseline tumor assessment. BORR was 11.86% (7/59 subjects), ORR was 6.78% (4/59 subjects) with PR as confirmed best overall response (3 subjects with melanoma and a subject with CRC). […] Fifty (84.75%) of 59 subjects developed an event (progression of disease or death), all of which were reported as PD except 1 death case. In addition, median progression-free survival (PFS) was 7.83 weeks and the 95% confidence interval for the median was [7.26 weeks, 8.26 weeks]. Median duration of response (DOR) of a total response in this study was 15.66 weeks from 7 responders.

Where only a bound is given, the exact number is not on record here.

Sequence of RAF-1 (CRAF) (P04049 whole entry): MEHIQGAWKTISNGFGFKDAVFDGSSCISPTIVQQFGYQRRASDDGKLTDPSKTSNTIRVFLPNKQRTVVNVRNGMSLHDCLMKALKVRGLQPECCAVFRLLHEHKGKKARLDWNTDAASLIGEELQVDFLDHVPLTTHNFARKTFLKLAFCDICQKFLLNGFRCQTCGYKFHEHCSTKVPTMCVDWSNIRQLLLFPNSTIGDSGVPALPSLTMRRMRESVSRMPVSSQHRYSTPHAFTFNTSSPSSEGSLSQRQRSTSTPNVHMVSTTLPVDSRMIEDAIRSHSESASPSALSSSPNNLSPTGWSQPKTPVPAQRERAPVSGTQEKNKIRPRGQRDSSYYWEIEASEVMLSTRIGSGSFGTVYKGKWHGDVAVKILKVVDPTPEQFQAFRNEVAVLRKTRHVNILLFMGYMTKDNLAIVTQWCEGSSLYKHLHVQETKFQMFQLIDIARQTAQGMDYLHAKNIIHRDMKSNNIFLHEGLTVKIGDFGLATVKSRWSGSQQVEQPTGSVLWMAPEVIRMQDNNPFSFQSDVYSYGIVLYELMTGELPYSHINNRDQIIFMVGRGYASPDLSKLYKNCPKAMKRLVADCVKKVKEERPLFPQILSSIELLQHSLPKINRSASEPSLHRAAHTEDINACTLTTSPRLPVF
Sequence of EPHA7 (Q15375 28-998, species assumed): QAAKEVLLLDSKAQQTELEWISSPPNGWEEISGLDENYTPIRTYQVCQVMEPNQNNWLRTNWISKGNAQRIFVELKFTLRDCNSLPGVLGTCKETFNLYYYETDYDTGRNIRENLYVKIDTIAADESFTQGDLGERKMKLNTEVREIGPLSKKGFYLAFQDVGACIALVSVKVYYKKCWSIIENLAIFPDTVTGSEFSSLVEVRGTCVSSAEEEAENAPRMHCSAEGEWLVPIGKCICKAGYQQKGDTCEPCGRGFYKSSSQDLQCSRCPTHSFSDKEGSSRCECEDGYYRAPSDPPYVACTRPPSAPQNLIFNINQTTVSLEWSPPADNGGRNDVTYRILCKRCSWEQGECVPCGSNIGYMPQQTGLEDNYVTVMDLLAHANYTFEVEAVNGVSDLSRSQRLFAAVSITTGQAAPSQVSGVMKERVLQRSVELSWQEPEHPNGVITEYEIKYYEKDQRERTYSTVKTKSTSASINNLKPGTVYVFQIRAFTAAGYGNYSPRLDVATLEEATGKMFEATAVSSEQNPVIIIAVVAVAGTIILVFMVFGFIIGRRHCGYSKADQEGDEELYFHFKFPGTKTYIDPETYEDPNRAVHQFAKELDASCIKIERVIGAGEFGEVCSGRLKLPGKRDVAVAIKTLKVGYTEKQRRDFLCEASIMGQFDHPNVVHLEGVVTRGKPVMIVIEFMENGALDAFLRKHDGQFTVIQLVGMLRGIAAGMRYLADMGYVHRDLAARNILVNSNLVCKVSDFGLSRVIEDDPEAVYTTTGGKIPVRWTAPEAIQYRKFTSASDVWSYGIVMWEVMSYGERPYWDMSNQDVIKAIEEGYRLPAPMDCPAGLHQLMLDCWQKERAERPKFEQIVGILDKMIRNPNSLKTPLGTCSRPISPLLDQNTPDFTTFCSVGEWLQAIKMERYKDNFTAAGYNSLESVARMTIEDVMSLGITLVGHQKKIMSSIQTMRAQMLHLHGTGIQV

At RAF-1 (CRAF), `Cc1ccc2c(Nc3cccc(Cl)c3F)nccc2c1NC(=O)c1csc2c(N)ncnc12` [Belvarafenib, 4-amino-N-(1-((3-chloro-2-fluorophenyl)amino)-6-methylisoquinolin-5-yl)thieno[3,2-d]pyrimidine-7-carboxamide] had an IC50 of 2 nM. The inhibition at 1 µM against EPHA7 was greater than 90%. Besides, the “P-gp/BCRP efflux substrate?” value in the series with P-gp/BCRP was “is not a P-gp and a BCRP efflux substrate and No”. Besides, the “Median DOR” value in series [1] (800 mg BID group) is on record as 30.18 weeks. In series [1] (67 evaluable subjects), the “Best overall response rate (BORR)” value is listed as 8.96%, the “objective response rate (ORR)” value turned out to be 4.48% and the “subjects who developed an event (progression of disease or death)” value turned out to be 88.06%. In series [1] (BRAF-mutant melanoma subjects (13)), the “BORR, subgroup re-analysis” value is 7.69%. In addition, the median progression-free survival in series [1] (in vivo) came out at 11.53 weeks. Besides, the “DOR of a subject” value in series [1] (single subject) came out at 100.29 weeks. In series [1] (subjects treated with 100 mg QD dose level or above), this molecule had a Disease control of 50.57%. Also, the “Median DOR” value in series [1] (total group) was found to be 23.99 weeks. In series [1] (updated results), the “BORR, updated results” value was found to be 10.45% and the “ORR, updated results” value is 4.48%. Besides, the “B/P (nonclinical), percentage of brain exposure relative to plasma” value in series [2] (93% mice, 138% rats) is recorded as 93-138%. Moreover, the Kp in series [2] (oral, 30 mg/kg) is 0.8 to 1.2. For the same molecule, the concentration ratio (Kp) in series [2] (mice and rats, oral administration) was roughly 1. Also, in series [3] (450 mg BID), the Disease control came to 35.59%, the ORR is 6.78%, the “median progression-free survival (PFS)” value stood at 7.83 weeks and the “subjects who developed an event (progression of disease or death)” value was 84.75%. The “Median duration of response (DOR)” value in series [3] (450 mg BID, 7 responders) is on record as 15.66 weeks. In series [3] (450 mg BID, 59 evaluable subjects), this molecule came in with a BORR of 11.86%. In addition, the “Median DOR” value in series [3] (2 BRAF-mutant melanoma responders) was 22.49 weeks.

The IC50 is the concentration that inhibits the measured activity by half. The inhibition is the drop in the measured response relative to a control, in per cent. Low values mean a response near the control, high ones a response far below the control. For orientation: Kp means tissue or fluid exposure divided by exposure in the circulation.
